Data reported in US10927107B2, “Phenyl [a]indole[2,3-g]quinolizine compounds, preparation method therefor, pharmaceutical composition, and applications thereof” (Shanghai Institute of Materia Medica, Chinese Academy of …, priority 2016, dated 2021).

The molecules below were run on HepG2 cells (assay: In vitro lipid-lowering activity: DiI-LDL uptake in HepG2 cells). Details: Homo sapiens, test compound 5 uM, 24 h, DiI-LDL 20 ug/ml, 3 h, FLU of sample group/FLU of blank group x100%, read-out: LDL uptake rate.
Format: cell-based
Description: HepG2 cells were inoculated in 24-well plates, cultured in DMEM containing 10% FBS for 24 h or 48 h, and then transferred to DMEM containing 2% defatted serum and cultivated for 24 h. The old culture solution was discarded and replaced with new 2% defatted serum DMEM, and a test compound (the working concentration of which is 5 uM, triplicate for each sample) was added and incubated for 24 h. The old culture solution was abandoned and DMEM containing DiI-LDL (20 ug/ml) was added (300 ul/per 24 wells), incubated for 3 h. DMEM containing DiI-LDL was discarded, and cells were rinsed twice with PBS containing 0.4% BSA, and 3 times with PBS to remove excess DiI-LDL. Isopropanol was added (500 ul/per well of a 24-well plate), and was kept in darkness. After shaken for 20 minutes, 200 ul of supernatant was sucked to a black fluorescent plate, and fluorescence intensity (FLU) was detected at excitation light 520 nm and emission light 578 nm. The experimental results were calculated: LDL uptake rate=(FLU value of sample group to be tested/FLU value of blank group)×100%.

First: COc1ccc2c(c1)c1c(n2CO)CN2CCc3cc(OC)c(OCc4ccccc4)cc3[C@H]2C1 [(R)-A1]
Second: COc1ccc2c(c1)c1c(n2CO)CN2CCc3cc(OCc4ccccc4)c(OC)cc3[C@H]2C1 [(R)-A55]
The activity at 5 µM of the first is lower: 185% for the first, 200% for the second.

First: COc1ccc2[nH]c3c(c2c1)C[C@@H]1c2cc(OCc4ccc(C(F)(F)F)cc4)c(OC)cc2CCN1C3 [(R)-C3]
Second: COc1ccc2[nH]c3c(c2c1)C[C@@H]1c2cc(OC)c(OCc4ccc(C(F)(F)F)cc4)cc2CCN1C3 [(R)-C47, (R)-2,12-Dimethoxy-3-((4-(trifluoromethyl)benzyl)oxy)-5,6,8,9,14,14a-hexahydroindolo[3′,2′:4,5]pyrido[2,1-a]isoquinoline]
The activity at 5 µM of the first is lower: 218% for the first, 292% for the second.

Compared with `COc1ccc2c(c1)c1c(n2CO)CN2CCc3cc(OC)c(OCc4ccccc4)cc3[C@@H]2C1` [(S)-A1], `COc1ccc2c(c1)c1c(n2CO)CN2CCc3cc(OCc4ccccc4)c(OC)cc3[C@@H]2C1` [(S)-A55] is higher in activity at 5 µM: 116% for the first, 120% for the second.

First: COc1ccc2[nH]c3c(c2c1)C[C@H]1c2cc(OCc4ccc(C(F)(F)F)cc4)c(OC)cc2CCN1C3 [(S)-C3]
Second: COc1ccc2[nH]c3c(c2c1)C[C@H]1c2cc(OC)c(OCc4ccc(C(F)(F)F)cc4)cc2CCN1C3 [(S)-C47, (S)-2,12-Dimethoxy-3-((4-(trifluoromethyl)benzyl)oxo)-5,6,8,9,14,14a-hexahydroindolo[3′,2′:4,5]pyrido[2,1-a]isoquinoline]
The activity at 5 µM of the first is lower: 111% for the first, 273% for the second.

Compared with `COc1ccc2c(c1)c1c(n2CO)CN2CCc3cc(OC)c(OCc4ccccc4F)cc3C2C1` (stereo not shown) [Example A9, (2-((2-fluorobenzyl)oxy)-3,12-dimethoxy-5,6,14,14a-tetrahydroindolo[3′,2′:4,5]pyridine[2,1-a]isoquinoline-9(8H)-yl)methanol], `COc1cc2c(cc1OCc1ccccc1F)C1Cc3c(n(CO)c4ccccc34)CN1CC2` (stereo not shown) [Example A10, (2-((2-fluorobenzyl)oxy)-3-methoxy-5,6,14,14a-tetrahydroindolo[3′,2′:4,5]pyridine[2,1-a]isoquinoline-9(8H)-yl)methanol] is lower in activity at 5 µM: 113% for the first, 108% for the second.

First: COc1cccc(COc2cc3c(cc2OC)CCN2Cc4c(c5cc(OC)ccc5n4CO)CC32)c1 (stereo not shown) [Example A13, (3,12-Dimethoxy-2-((3-methoxybenzyl)oxo)-5,6,14,14a-tetrahydroindolo[3′,2′:4,5]pyridine[2,1-a]isoquinoline-9(8H)-yl)methanol]
Second: COc1ccc2c(c1)c1c(n2CO)CN2CCc3cc(OCc4cccc(C)c4)c(OC)cc3C2C1 (stereo not shown) [Example A142, (2,12-Dimethoxy-3-((3-methylbenzyl)oxo)-5,6,14,14a-tetrahydroindolo[3′,2′:4,5]pyridine[2,1-a]isoquinoline-9(8H)-yl)methanol]
The activity at 5 µM of the first is lower: 107% for the first, 108% for the second.

First: COc1ccc2c(c1)c1c(n2CO)CN2CCc3cc(OC)c(OCc4ccc(C)cc4)cc3C2C1 (stereo not shown) [Example A15, (3,12-Dimethoxy-2-((4-methylbenzyl)oxy)-5,6,14,14a-tetrahydroindolo[3′,2′:4,5]pyridine[2,1-a]isoquinoline-9(8H)-yl)methanol]
Second: COc1ccc2c(c1)c1c(n2CO)CN2CCc3cc(OCc4ccc(C(F)(F)F)cc4)c(OC)cc3C2C1 (stereo not shown) [Example A57, (2,12-Dimethoxy-3-((4-(trifluoromethyl)benzyl)oxy)-5,6,14,14a-tetrahydroindolo[3′,2′:4,5]pyridine[2,1-a]isoquinoline-9(8H)-yl)methanol]
The activity at 5 µM of the first is higher: 115% for the first, 112% for the second.

Compared with `COc1ccc2c(c1)c1c(n2CO)CN2CCc3cc(OC)c(OC)cc3C2C1` (stereo not shown) [Example A37, (2,3,12-Trimethoxy-5,6,14,14a-tetrahydroindolo[3′,2′:4,5]pyridine[2,1-a]isoquinoline-9(8H)-yl)methanol], `COc1ccc2c(c1)c1c(n2CO)CN2CCc3cc(OC)c(OCC(F)(F)F)cc3C2C1` (stereo not shown) [Example A39, (3,12-Dimethoxy-2-(2,2,2-trifluoroethoxy)-5,6,14,14a-tetrahydroindolo[3′,2′:4,5]pyridine[2,1-a]isoquinoline-9(8H)-yl)methanol] is higher in activity at 5 µM: 99.1% for the first, 147% for the second.

Compared with `COc1cc2c(cc1OC)C1Cc3c(n(CO)c4ccccc34)CN1CC2` (stereo not shown) [Example A38, (2,3-dimethoxy-5,6,14,14a-tetrahydroindolo[3′,2′:4,5]pyridine[2,1-a]isoquinoline-9(8H)-yl)methanol], `COc1cc2c(cc1OCc1ccc(C)cc1)CCN1Cc3c(c4ccccc4n3CO)CC21` (stereo not shown) [Example A70, (2-methoxy-3-((4-methylbenzyl)oxy)-5,6,14,14a-tetrahydroindolo[3′,2′:4,5]pyridine[2,1-a]isoquinoline-9(8H)-yl)methanol] is lower in activity at 5 µM: 123% for the first, 80.6% for the second.

Going from `COc1cc2c(cc1OCc1ccc(F)cc1)CCN1Cc3c(c4ccccc4n3CO)CC21` (stereo not shown) [Example A60] to `COc1cc2c(cc1OCc1cccc(C)c1)CCN1Cc3c(c4ccccc4n3CO)CC21` (stereo not shown) [Example A143, (2-methoxy-3-((3-methylbenzyl)oxo)-5,6,14,14a-tetrahydroindolo[3′,2′:4,5]pyridine[2,1-a]isoquinoline-9(8H)-yl)methanol], the activity at 5 µM falls from 108% to 91.1%.

First: OCn1c2c(c3ccccc31)CC1c3cc4c(cc3CCN1C2)OCO4 (stereo not shown) [Example A109, (5,6,14,14a-tetrahydro-[1,3]dioxazo[4,5-g]indolo[3′,2′:4,5]pyridine[2,1-a]isoquinoline-9(8H)-yl)methanol]
Second: COc1cc2c(cc1OCc1ccccc1F)CCN1Cc3[nH]c4ccccc4c3CC21 (stereo not shown) [Example C54, 3-((2-fluorobenzyl)oxo)-2-methoxy-5,6,8,9,14,14a-hexahydroindole[3′,2′:4,5]pyridine[2,1-a]isoquinoline]
The activity at 5 µM of the first is lower: 100% for the first, 110% for the second.

Compared with `COc1cc2c(cc1OCc1ccc(F)cc1)C1Cc3c([nH]c4ccccc34)C(c3ccc(F)cc3)N1CC2` (stereo not shown) [Example B6, 2-((4-fluorobenzyl)oxo)-8-(4-fluorophenyl)-3-methoxy-5,6,8,9,14,14a-hexahydroindole[3′,2′: 4,5]pyridine[2,1-a]isoquinoline], `COc1cc2c(cc1OCc1ccc(F)cc1)CCN1C2Cc2c([nH]c3ccccc23)C1c1ccc(F)cc1` (stereo not shown) [Example B60, 3-((4-fluorobenzyl)oxo)-8-(4-fluorophenyl)-2-methoxy-5,6,8,9,14,14a-hexahydroindole[3′,2′: 4,5]pyridine[2,1-a]isoquinoline] is higher in activity at 5 µM: 108% for the first, 114% for the second.

Going from `COc1ccc2[nH]c3c(c2c1)CC1c2cc(OCc4ccccc4F)c(OC)cc2CCN1C3c1ccc(F)cc1` (stereo not shown) [Example B9, 2-((2-fluorobenzyl)oxo)-8-(4-fluorophenyl)-3,12-dimethoxy-5,6,8,9,14,14a-hexahydroindole[3′,2′:4,5]pyridine[2,1-a]isoquinoline] to `COc1ccc2[nH]c3c(c2c1)CC1c2cc(OC)c(OCc4cccc(F)c4)cc2CCN1C3c1ccc(F)cc1` (stereo not shown) [Example B61, 3-((3-fluorobenzyl)oxo)-8-(4-fluorophenyl)-2,12-dimethoxy-5,6,8,9,14,14a-hexahydroindole[3′,2′:4,5]pyridine[2,1-a]isoquinoline], the activity at 5 µM rises from 94.3% to 116%.

First: COc1cc2c(cc1OCc1ccccc1F)C1Cc3c([nH]c4ccccc34)C(c3ccc(F)cc3)N1CC2 (stereo not shown) [Example B10, 2-((2-fluorobenzyl)oxo)-8-(4-fluorophenyl)-3-methoxy-5,6,8,9,14,14a-hexahydroindole[3′,2′: 4,5]pyridine[2,1-a]isoquinoline]
Second: COc1cc2c(cc1OCc1ccc(C)cc1)C1Cc3c([nH]c4ccccc34)C(c3ccc(F)cc3)N1CC2 (stereo not shown) [Example B16, 8-(4-Fluorophenyl)-3-methoxy-2-((4-methylbenzyl)oxo)-5,6,8,9,14,14a-hexahydroindolo[3′,2′:4,5]pyridine[2,1-a]isoquinoline]
The activity at 5 µM of the first is higher: 108% for the first, 107% for the second.

Going from `COc1cccc(COc2cc3c(cc2OC)CCN2C3Cc3c([nH]c4ccc(OC)cc34)C2c2ccc(F)cc2)c1` (stereo not shown) [Example B13, 8-(4-Fluorophenyl)-3,12-dimethoxy-2-((3-methoxybenzyl)oxo)-5,6,8,9,14,14a-hexahydroindolo[3′,2′:4,5]pyridine[2,1-a]isoquinoline] to `COc1ccc2[nH]c3c(c2c1)CC1c2cc(OCc4ccc(C)cc4)c(OC)cc2CCN1C3c1ccc(F)cc1` (stereo not shown) [Example B15, 8-(4-Fluorophenyl)-3,12-dimethoxy-2-((4-methylbenzyl)oxo)-5,6,8,9,14,14a-hexahydroindolo[3′,2′:4,5]pyridine[2,1-a]isoquinoline], the activity at 5 µM rises from 105% to 111%.

Going from `COc1ccc2[nH]c3c(c2c1)CC1c2cc(OC)c(OCc4ccc(F)cc4)cc2CCN1C3c1ccc(F)cc1` (stereo not shown) [Example B59, 3-((4-fluorobenzyl)oxo)-8-(4-fluorophenyl)-2,12-dimethoxy-5,6,8,9,14,14a-hexahydroindole[3′,2′:4,5]pyridine[2,1-a]isoquinoline] to `COc1ccc2[nH]c3c(c2c1)CC1c2cc(OC)c(OCc4cccc(F)c4)cc2CCN1C3` (stereo not shown) [Example C51, 3-((3-Fluorobenzyl)oxo)-2,12-dimethoxy-5,6,8,9,14,14a-hexahydroindole[3′,2′:4,5]pyridine[2,1-a]isoquinoline], the activity at 5 µM rises from 109% to 192%.

Going from `COc1cc2c(cc1OCc1ccc(C)cc1)CCN1Cc3[nH]c4ccccc4c3CC21` (stereo not shown) [Example C60] to `COc1ccc2[nH]c3c(c2c1)CC1c2cc(OC)c(OCc4cccc(C)c4)cc2CCN1C3` (stereo not shown) [Example C106, 2,12-dimethoxy-3-((3-methylbenzyl)oxo)-5,6,8,9,14,14a-hexahydroindolo[3′,2′:4,5]pyridine[2,1-a]isoquinoline], the activity at 5 µM rises from 84.3% to 111%.
